Measurements as given in ChEMBL document CHEMBL5113403, “Design, synthesis, and biological evaluation of novel pyrazolo [3,4-d]pyrimidine derivatives as potent PLK4 inhibitors for the treatment of TRIM37-amplified breast cancer” (Eur J Med Chem, 2022).
pIC50: −log10 of the molar value.

Legend:
[1] = tested on: MCF7; test: Induction of cell cycle arrest in human MCF7 cells assessed as G2 phase cells at 0.25 uM measured after 48 hrs by flow cytometry analysis (reference value: 31.8 %); type: functional
[2] = tested on: MCF7; test: Induction of cell cycle arrest in human MCF7 cells assessed as G2 phase cells at 0.10 uM measured after 48 hrs by flow cytometry analysis (reference value: 31.8 %); type: functional; settings: dose 0.1 µM
[3] = molecular target: CYP2D6 (Homo sapiens, UniProt P10635); test: Inhibition of CYP2D6 in human liver microsomes at 10 uM preincubated for 10 mins followed by addition of NADPH-regenerating system and measured after 15 mins by LC-MS/MS analysis relative to control; type: ADME, Microsome; settings: time 25 min
CYP2D6, sequence (P10635 whole entry): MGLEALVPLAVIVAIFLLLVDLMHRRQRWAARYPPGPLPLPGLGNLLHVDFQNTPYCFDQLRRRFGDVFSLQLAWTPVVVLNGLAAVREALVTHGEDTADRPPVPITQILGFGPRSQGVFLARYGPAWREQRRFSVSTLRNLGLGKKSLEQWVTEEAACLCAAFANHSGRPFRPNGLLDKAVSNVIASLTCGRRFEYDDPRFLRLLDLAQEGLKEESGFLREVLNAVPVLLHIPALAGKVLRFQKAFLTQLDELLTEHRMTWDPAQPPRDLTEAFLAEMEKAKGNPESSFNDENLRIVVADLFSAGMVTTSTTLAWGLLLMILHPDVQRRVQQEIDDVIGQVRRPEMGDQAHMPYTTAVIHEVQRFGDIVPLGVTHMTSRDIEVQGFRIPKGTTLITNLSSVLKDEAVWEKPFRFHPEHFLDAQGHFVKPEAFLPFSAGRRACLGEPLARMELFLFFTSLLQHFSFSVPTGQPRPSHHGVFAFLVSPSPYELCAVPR

[4] = tested on: MCF7; test: Induction of apoptosis in human MCF7 cells assessed as viable cells at 0.10 uM incubated for 48 hrs by Annexin-V-FITC/PI staining based flow cytometric analysis (reference value: 97 %); type: functional; settings: dose 0.1 µM
[5] = tested on: MCF7; test: Antiproliferative activity against human MCF7 cells assessed as cell growth inhibition incubated for 5 days by MTT assay; type: functional, cell-based; settings: MCF7, 120 h
[6] = tested on: MCF7; test: Induction of apoptosis in human MCF7 cells assessed as viable cells at 0.50 uM incubated for 48 hrs by Annexin-V-FITC/PI staining based flow cytometric analysis (reference value: 97 %); type: functional; settings: dose 0.5 µM
[7] = tested on: MCF7; test: Induction of cell cycle arrest in human MCF7 cells assessed as G2 phase cells at 2.5 uM measured after 48 hrs by flow cytometry analysis (reference value: 31.8 %); type: functional
[8] = Oral bioavailability in Sprague-Dawley rat at 10 mg/kg by LC-MS/MS analysis; type: ADME, organism-based; settings: in vivo
[9] = Plasma stability in human assessed as compound remaining at 100 uM measured after 30 mins by LC-MS/MS analysis relative to control; type: ADME, cell-free; settings: read-out: Stability
[10] = molecular target: CYP2C19 (Homo sapiens, UniProt P33261); test: Inhibition of CYP2C19 in human liver microsomes at 10 uM preincubated for 10 mins followed by addition of NADPH-regenerating system and measured after 15 mins by LC-MS/MS analysis relative to control; type: ADME, Microsome; settings: time 25 min
CYP2C19, sequence (P33261 whole entry): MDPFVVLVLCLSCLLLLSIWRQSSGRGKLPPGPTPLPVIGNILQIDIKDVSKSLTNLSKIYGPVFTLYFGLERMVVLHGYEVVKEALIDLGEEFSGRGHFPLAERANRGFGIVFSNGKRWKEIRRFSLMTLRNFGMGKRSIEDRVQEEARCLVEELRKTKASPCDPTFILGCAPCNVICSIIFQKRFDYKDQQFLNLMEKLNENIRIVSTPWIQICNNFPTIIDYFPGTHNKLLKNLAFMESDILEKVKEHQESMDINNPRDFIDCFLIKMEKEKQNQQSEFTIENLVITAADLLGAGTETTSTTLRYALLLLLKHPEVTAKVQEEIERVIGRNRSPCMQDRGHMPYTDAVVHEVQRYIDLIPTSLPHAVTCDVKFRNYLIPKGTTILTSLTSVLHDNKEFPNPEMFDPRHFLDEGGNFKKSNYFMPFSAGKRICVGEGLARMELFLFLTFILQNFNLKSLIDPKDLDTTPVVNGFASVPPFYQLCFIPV

[11] = molecular target: Serine/threonine-protein kinase PAK 4 (Homo sapiens, UniProt O96013); test: Inhibition of PAK4 (unknown origin) incubated for 60 mins by time-resolved HTRF assay
Serine/threonine-protein kinase PAK 4, sequence (O96013 whole entry): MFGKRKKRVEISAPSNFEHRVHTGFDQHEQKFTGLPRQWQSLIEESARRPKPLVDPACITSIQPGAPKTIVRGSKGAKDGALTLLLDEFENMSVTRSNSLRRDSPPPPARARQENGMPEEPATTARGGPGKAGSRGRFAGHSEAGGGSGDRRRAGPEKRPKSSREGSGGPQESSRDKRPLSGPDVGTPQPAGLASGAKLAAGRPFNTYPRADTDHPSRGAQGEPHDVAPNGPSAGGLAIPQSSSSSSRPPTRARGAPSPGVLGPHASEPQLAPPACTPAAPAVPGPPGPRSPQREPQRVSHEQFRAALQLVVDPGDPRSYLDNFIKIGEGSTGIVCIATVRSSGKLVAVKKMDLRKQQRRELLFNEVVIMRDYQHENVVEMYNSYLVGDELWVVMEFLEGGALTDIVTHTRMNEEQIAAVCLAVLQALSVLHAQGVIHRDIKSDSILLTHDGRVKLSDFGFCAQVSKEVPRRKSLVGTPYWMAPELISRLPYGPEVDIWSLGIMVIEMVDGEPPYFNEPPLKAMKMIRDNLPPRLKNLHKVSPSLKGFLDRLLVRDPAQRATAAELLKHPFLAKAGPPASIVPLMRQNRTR

[12] = tested on: MCF7; test: Induction of apoptosis in human MCF7 cells assessed as necrotic cells at 0.10 uM incubated for 48 hrs by Annexin-V-FITC/PI staining based flow cytometric analysis (reference value: 0.18 %); type: functional; settings: dose 0.1 µM
[13] = tested on: MCF7; test: Induction of apoptosis in human MCF7 cells assessed as total apoptotic cells at 0.25 uM incubated for 48 hrs by Annexin-V-FITC/PI staining based flow cytometric analysis relative to control; type: functional
[14] = MRT in Sprague-Dawley rat at 3 mg/kg, iv by LC-MS/MS analysis; type: ADME, organism-based; settings: in vivo
[15] = tested on: MCF7; test: Induction of apoptosis in human MCF7 cells assessed as necrotic cells at 0.25 uM incubated for 48 hrs by Annexin-V-FITC/PI staining based flow cytometric analysis (reference value: 0.18 %); type: functional
[16] = Half-life in Sprague-Dawley rat at 10 mg/kg, po by LC-MS/MS analysis; type: ADME, organism-based; settings: in vivo
[17] = tested on: MCF7; test: Induction of apoptosis in human MCF7 cells assessed as late apoptotic cells at 0.25 uM incubated for 48 hrs by Annexin-V-FITC/PI staining based flow cytometric analysis (reference value: 0.019 %); type: functional
[18] = tested on: MCF7; test: Induction of cell cycle arrest in human MCF7 cells assessed as S phase cells at 1 uM measured after 48 hrs by flow cytometry analysis (reference value: 9.31 %); type: functional
[19] = molecular target: CYP3A4 (Homo sapiens, UniProt P08684); test: Inhibition of CYP3A4 in human liver microsomes at 10 uM preincubated for 10 mins followed by addition of NADPH-regenerating system and measured after 15 mins by LC-MS/MS analysis relative to control; type: ADME, Microsome; settings: time 25 min
CYP3A4, sequence (P08684 whole entry): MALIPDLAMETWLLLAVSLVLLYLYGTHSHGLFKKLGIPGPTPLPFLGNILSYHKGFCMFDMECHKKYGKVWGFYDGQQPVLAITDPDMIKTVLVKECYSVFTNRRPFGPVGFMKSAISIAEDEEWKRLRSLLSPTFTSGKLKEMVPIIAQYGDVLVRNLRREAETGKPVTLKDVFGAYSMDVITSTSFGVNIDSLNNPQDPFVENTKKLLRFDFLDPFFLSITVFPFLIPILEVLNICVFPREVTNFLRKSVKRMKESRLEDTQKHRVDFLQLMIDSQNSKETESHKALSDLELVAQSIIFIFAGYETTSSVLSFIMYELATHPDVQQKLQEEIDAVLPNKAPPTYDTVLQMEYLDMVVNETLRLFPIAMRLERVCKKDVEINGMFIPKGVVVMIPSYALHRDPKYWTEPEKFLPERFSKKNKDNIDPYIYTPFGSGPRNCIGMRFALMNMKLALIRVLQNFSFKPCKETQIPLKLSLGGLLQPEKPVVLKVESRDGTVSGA

[20] = tested on: MCF7; test: Induction of apoptosis in human MCF7 cells assessed as total apoptotic cells at 0.50 uM incubated for 48 hrs by Annexin-V-FITC/PI staining based flow cytometric analysis relative to control; type: functional; settings: dose 0.5 µM
[21] = tested on: MCF7; test: Induction of cell cycle arrest in human MCF7 cells assessed as less G1 phase cells at 2.5 uM measured after 48 hrs by flow cytometry analysis (reference value: 0.44 %); type: functional
[22] = tested on: MCF7; test: Induction of cell cycle arrest in human MCF7 cells assessed as greater G1 phase cells at 0.10 uM measured after 48 hrs by flow cytometry analysis (reference value: 0.78 %); type: functional; settings: dose 0.1 µM
[23] = tested on: MCF7; test: Induction of apoptosis in human MCF7 cells assessed as late apoptotic cells at 2.5 uM incubated for 48 hrs by Annexin-V-FITC/PI staining based flow cytometric analysis (reference value: 0.019 %); type: functional
[24] = tested on: MCF7; test: Induction of cell cycle arrest in human MCF7 cells assessed as less G1 phase cells at 0.50 uM measured after 48 hrs by flow cytometry analysis (reference value: 0.44 %); type: functional; settings: dose 0.5 µM
[25] = Plasma stability in human assessed as half-life at 100 uM measured upto 120 mins by LC-MS/MS analysis relative to control; type: ADME, cell-free
[26] = tested on: MCF7; test: Induction of apoptosis in human MCF7 cells assessed as necrotic cells at 0.50 uM incubated for 48 hrs by Annexin-V-FITC/PI staining based flow cytometric analysis (reference value: 0.18 %); type: functional; settings: dose 0.5 µM
[27] = Plasma stability in human assessed as compound remaining at 100 uM measured after 10 mins by LC-MS/MS analysis relative to control; type: ADME, cell-free; settings: read-out: Stability
[28] = tested on: MCF7; test: Induction of apoptosis in human MCF7 cells assessed as total apoptotic cells at 2.50 uM incubated for 48 hrs by Annexin-V-FITC/PI staining based flow cytometric analysis relative to control; type: functional; settings: dose 2.5 µM
[29] = tested on: MCF7; test: Induction of cell cycle arrest in human MCF7 cells assessed as decrease in G1 phase cells at 0.10 uM measured after 48 hrs by flow cytometry analysis (reference value: 56.9 %); type: functional; design: scale not given: the % may be the effect or the level left; settings: dose 0.1 µM
[30] = Metabolic stability in human liver microsomes assessed as compound remaining at 100 uM measured after 60 mins in the presence of NADPH by LC-MS/MS analysis; type: ADME, Microsome; settings: read-out: Stability
[31] = AUCinfinity in Sprague-Dawley rat at 3 mg/kg, iv by LC-MS/MS analysis; type: ADME, organism-based; design: time infinity, dose 3 mg/kg, route iv; settings: in vivo
[32] = tested on: MCF7; test: Induction of cell cycle arrest in human MCF7 cells assessed as less G1 phase cells at 0.10 uM measured after 48 hrs by flow cytometry analysis (reference value: 0.44 %); type: functional; settings: dose 0.1 µM
[33] = MRT in Sprague-Dawley rat at 10 mg/kg, po by LC-MS/MS analysis; type: ADME, organism-based; settings: in vivo
[34] = Clearance in Sprague-Dawley rat at 3 mg/kg, iv by LC-MS/MS analysis; type: ADME, organism-based; settings: in vivo
[35] = tested on: MCF7; test: Induction of apoptosis in human MCF7 cells assessed as early apoptotic cells at 0.25 uM incubated for 48 hrs by Annexin-V-FITC/PI staining based flow cytometric analysis (reference value: 2.83 %); type: functional
[36] = tested on: MCF7; test: Induction of apoptosis in human MCF7 cells assessed as viable cells at 2.5 uM incubated for 48 hrs by Annexin-V-FITC/PI staining based flow cytometric analysis (reference value: 97 %); type: functional

For `Cc1cc(Nc2nc(NCc3ccc(F)cc3F)nc3c2cnn3C2CCOCC2)n[nH]1`, the Activity [1] was 44.4%, the Activity [2] was 38% and the inhibition at 0.25 h, 10 µM [3] was 13.4%. It also gave an Activity [4] of 74.9%, a pIC50 [5] of 6.44 and an Activity [6] of 32.2%. For the same compound, the Activity [7] was 67.6%, the bioavailability [8] was 8.03% and the remaining at 0.5 h, 100 µM [9] was 96.6%. For the same compound, the inhibition at 0.25 h, 10 µM [10] was 32.9%, the pIC50 [11] was 5.76 and the Activity [12] was 1.15%. For the same compound, the Activity [13] was 30.98%, the MRT [14] was 1.07 h and the Activity [15] was 1.97%. The half-life [16] was 1.75 h, the Activity [17] was 6.18% and the Activity [18] was 19.2%. It also gave an inhibition at 0.25 h, 10 µM [19] of 0%, an Activity [20] of 67.28% and an Activity [21] of 0.39%. For the same compound, the Activity [22] was 0.62%, the Activity [23] was 10.8% and the Activity [24] was 0.71%. It also gave a half-life at 100 µM [25] of over 4.82 h, an Activity [26] of 0.56% and a remaining at 10 min, 100 µM [27] of 108%. The Activity [28] was 79.3%, the Activity [29] was 53.4% and the remaining at 1 h, 100 µM [30] was 25.2%. The AUC(0-inf) [31] was 1070 ng·h/mL, the Activity [32] was 0.37% and the MRT [33] was 3.13 h. The clearance [34] was 47.2 mL/min/kg, the Activity [35] was 24.8% and the Activity [36] was 19.7%.
